From patent US4504469A, “Vasotocin derivatives” (priority 1982, dated 1985)
Where two headings read alike, the source gives them in different places. Where a SMILES comes first, the peptide text is derived from it. Bridges are numbered along the chain shown (N, C = ends). [ ]: non-standard residue; d: D form. Cit = NC(=O)NCCC[C@H](N)C(=O)O; Orn = NCCC[C@H](N)C(=O)O; Mpa = O=C(O)CCS

Tests used:
isolated rat uterus = format: cell-based
Experimental: The compounds according to the invention were investigated with regard to uterotonic potency on isolated rat uterus, using oxytocin as standard. The antagonistic properties of the compounds were also evaluated with the aid of this preparation. Also in vivo tests using oxytocin as the agonist were carried out, the results being compared with those obtained with Antocin.
Sprague Dawley rats (body weight approximately 250 g) in natural estrous were selected by vaginal smears. An approximately 20 mm long segment was cut from the middle of a uterine horn and mounted in an organ bath containing 10 ml of a modified Locke's solution of the following composition (mM:NaCl 153, KCl 5.63, CaCl2 0.541, NaHCO3 5.95 and glucose 2.78). The solution was gassed with 5% CO2 in oxygen at 30° C. The uterine contractions were allowed to stabilize for 30 min. Contractions were recorded isometrically at a resting tension of 1.5 g using Grass force transducers (Ft. 03). The antagonistic potency of the analogs was calculated as pA2 values (Rudinger, J. & Krejci, I. Experientia 18, (1962), 585-588). pA2 is a measure of the inhibitory effect of the peptide and was defined by Schild (Schild, H. O., British Journal of Pharmacology, 2, (1947), 189-206) as the negative logarithm of the molar concentration of an antagonist which reduces the effect of a dose of agonist to that of half the dose. The agonistic effects, if any, of the antagonists were investigated by adding to the bath containing the uterus preparation a varying amount of peptide corresponding at most to a concentration of 4 μg per ml.

Antidiuretic effect (AD) = experiment: Antidiuretic effect (AD); set-up: unit not given here
[1] = Pressor effect (effect on the blood pressure); set-up: reference not given here
rat uterus in vivo = experiment: In vivo inhibition of oxytocin-induced uterus contractions in rats, compared with Antocin; settings: anaesthetized rats, oxytocin infusion i.v., antagonist 0.8-8.0 μg/100 g i.v.; Antocin given the value 1
Experimental: Sprague Dawley rats (250 g) in natural estrous were anaesthetized with Inactin (0.5 mg/100 g body weight i.p.). Myometrial activity was recorded by means of a catheter fixed in the uterine cavity and filled with modified Locke's solution. The catheter was connected to a Statham P23d transducer, and contractions were recorded on a Grass polygraph (model 7d). Oxytocin was infused intravenously (0.05 μg/min/100 g body weight). When a regular contraction pattern had been obtained, the antagonist (0.8-8.0 μg/100 g body weight) was administered intravenously in a volume of 0.2 ml. The recorded curve was integrated over 15 min intervals immediately before and after injection of the antagonist. The inhibition of the increase in the magnitude of the uterus contractions caused by oxytocin infusion were compared with the inhibition of the Antocin which was given the value 1.

[2] = isolated rat uterus, oxytocin as agonist, 30° C.

Row | Compound | Uterus in vitro antagonist pA2 (isolated rat uterus) | AD (antidiuretic effect) (Antidiuretic effect (AD)) | Pressor (effect on the blood pressure) [1] | Uterus in vivo, compared with Antocin (rat uterus in vivo) | Uterus in vitro antagonist pA2 (isolated rat uterus; [2]) | Type of inhibition of the oxytocin effect (isolated rat uterus)
1 | CCOc1ccc(C[C@H]2NC(=O)CCSSC[C@@H](C(=O)N3CCC[C@H]3C(=O)N[C@H](CCCNC(=N)N)C(=O)NCC(N)=O)NC(=O)[C@H](CC(N)=O)NC(=O)[C@H](C(C)C)NC(=O)[C@H]([C@@H](C)CC)NC2=O)cc1 [Example 9, 1-β-mercaptopropionic acid-2-(4-ethoxy)-D-phenyl alanine-4-valine-8-D-arginine vasotocin] ([Mpa][dY](Et)IVNCP[dR]G-NH2; disulfide 1-6) | 8.6 | – | – | – | – | –
2 | CCOc1ccc(C[C@@H]2NC(=O)CCSSC[C@@H](C(=O)N3CCC[C@H]3C(=O)N[C@@H](CCCNC(=N)N)C(=O)NCC(N)=O)NC(=O)[C@H](CC(N)=O)NC(=O)[C@H](C(C)C)NC(=O)[C@H]([C@@H](C)CC)NC2=O)cc1 [Example 4, 1-β-mercaptopropionic acid-2-(4-ethoxy)-phenyl alanine-4-valine-8-arginine vasotocin] ([Mpa]Y(Et)IVNCPRG-NH2; disulfide 1-6) | 8.5 | – | – | – | – | –
3 | CC[C@H](C)[C@@H]1NC(=O)[C@@H](Cc2ccc(O)cc2)NC(=O)CCSSC[C@@H](C(=O)N2CCC[C@H]2C(=O)N[C@@H](CCCN)C(=O)NCC(N)=O)NC(=O)[C@H](CC(N)=O)NC(=O)[C@H](C(C)C)NC1=O [Example 13, 1-β-mercaptopropionic acid-2-D-tyrosine-4-valine-8-ornithine vasotocin] ([Mpa][dY]IVNCP[Orn]G-NH2; disulfide 1-6) | 8.2 | 1.2 | 0.6 | 4.4 | – | –
4 | CCOc1ccc(C[C@@H]2NC(=O)CCSSC[C@@H](C(=O)N3CCC[C@H]3C(=O)N[C@@H](CCCN)C(=O)NCC(N)=O)NC(=O)[C@H](CC(N)=O)NC(=O)[C@H](CCC(N)=O)NC(=O)[C@H]([C@@H](C)CC)NC2=O)cc1 [Example 1, 1-β-mercaptopropionic acid-2-(4-ethoxy)-phenyl alanine-8-ornithine-vasotocin] ([Mpa]Y(Et)IQNCP[Orn]G-NH2; disulfide 1-6) | 8.4 | – | – | – | – | –
5 | CCOc1ccc(C[C@@H]2NC(=O)CCSSC[C@@H](C(=O)N3CCC[C@H]3C(=O)N[C@@H](CCCN)C(=O)NCC(N)=O)NC(=O)[C@H](CC(N)=O)NC(=O)[C@H](C(C)C)NC(=O)[C@H]([C@@H](C)CC)NC2=O)cc1 [Example 6, 1-β-mercaptopropionic acid-2-(4-ethoxy)-phenyl alanine-4-valine-8-ornithine vasotocin] ([Mpa]Y(Et)IVNCP[Orn]G-NH2; disulfide 1-6) | 7.6 | – | – | – | – | –
6 | CC[C@H](C)[C@@H]1NC(=O)[C@@H](Cc2c[nH]c3ccccc23)NC(=O)CCSSC[C@@H](C(=O)N2CCC[C@H]2C(=O)N[C@@H](CCCN)C(=O)NCC(N)=O)NC(=O)[C@H](CC(N)=O)NC(=O)[C@H](C(C)C)NC1=O [Example 14, 1-β-mercaptopropionic acid-2-D-tryptophane-4-valine-8-ornithine vasotocin] ([Mpa][dW]IVNCP[Orn]G-NH2; disulfide 1-6) | 7.9 | 0.03 | 0.03 | 17.9 | – | –
7 | CCOc1ccc(C[C@H]2NC(=O)CCSSC[C@@H](C(=O)N3CCC[C@H]3C(=O)N[C@@H](CCCN)C(=O)NCC(N)=O)NC(=O)[C@H](CC(N)=O)NC(=O)[C@H]([C@@H](C)O)NC(=O)[C@H]([C@@H](C)CC)NC2=O)cc1 [Example 11, 1-β-mercaptopropionic acid-2-(4-ethoxy)-D-phenyl alanine-4-treonine-8-ornithine vasotocin] ([Mpa][dY](Et)ITNCP[Orn]G-NH2; disulfide 1-6) | – | – | – | – | 8.3 | –
8 | CC[C@H](C)[C@@H]1NC(=O)[C@@H](Cc2c[nH]c3ccccc23)NC(=O)CCSSC[C@@H](C(=O)N2CCC[C@H]2C(=O)N[C@H](CCCNC(=N)N)C(=O)NCC(N)=O)NC(=O)[C@H](CC(N)=O)NC(=O)[C@H]([C@@H](C)O)NC1=O [Example 12, 1-β-mercaptopropionic acid-2-D-tryptophane-4-treonine-8-D-arginine vasotocin] ([Mpa][dW]ITNCP[dR]G-NH2; disulfide 1-6) | – | 0.1 | 0.12 | 6.3 | 8.0 | –
9 | CC[C@H](C)[C@@H]1NC(=O)[C@@H](Cc2c[nH]c3ccccc23)NC(=O)CCSSC[C@@H](C(=O)N2CCC[C@H]2C(=O)N[C@@H](CCCNC(=N)N)C(=O)NCC(N)=O)NC(=O)[C@H](CC(N)=O)NC(=O)[C@H](C(C)C)NC1=O [Example 8, 1-β-mercaptopropionic acid-2-D-tryptophane-4-valine-8-arginine vasotocin] ([Mpa][dW]IVNCPRG-NH2; disulfide 1-6) | 8.4 | 0.1 | 0.12 | 11 | – | –
10 | CC[C@H](C)[C@@H]1NC(=O)[C@@H](Cc2c[nH]c3ccccc23)NC(=O)CCSSC[C@@H](C(=O)N2CCC[C@H]2C(=O)N[C@@H](CCCN)C(=O)NCC(N)=O)NC(=O)[C@H](CC(N)=O)NC(=O)[C@H]([C@@H](C)O)NC1=O [Example 15, 1-β-mercaptopropionic acid-2-D-tryptophane-4-treonine-8-ornithine vasotocin] ([Mpa][dW]ITNCP[Orn]G-NH2; disulfide 1-6) | 8.5 | 0.1 | 0.05 | 7.8 | – | –
11 | 1-β-mercaptopropionic acid-2-(4-ethoxy)-D-phenyl alanine-8-arginine vasotocin [Example 7] | – | 37.9 | 2.5 | 2 | 8.4 | –
12 | CCOc1ccc(C[C@@H]2NC(=O)CCSSC[C@@H](C(=O)N3CCC[C@H]3C(=O)N[C@@H](CCCNC(=N)N)C(=O)NCC(N)=O)NC(=O)[C@H](CC(N)=O)NC(=O)[C@H]([C@@H](C)O)NC(=O)[C@H]([C@@H](C)CC)NC2=O)cc1 [Example 5, 1-β-mercaptopropionic acid-2-(4-ethoxy)-phenyl alanine-4-treonine-8-arginine vasotocin] ([Mpa]Y(Et)ITNCPRG-NH2; disulfide 1-6) | – | – | – | – | 8.0 | –
13 | CCOc1ccc(C[C@H]2NC(=O)CCSSC[C@@H](C(=O)N3CCC[C@H]3C(=O)N[C@@H](CCCN)C(=O)NCC(N)=O)NC(=O)[C@H](CC(N)=O)NC(=O)[C@H](C(C)C)NC(=O)[C@H]([C@@H](C)CC)NC2=O)cc1 [Example 10, 1-β-mercaptopropionic acid-2-(4-ethoxy)-D-phenyl alanine-4-valine-8-ornithine vasotocin] ([Mpa][dY](Et)IVNCP[Orn]G-NH2; disulfide 1-6) | 7.9 | – | – | – | – | –
14 | CCOc1ccc(C[C@@H]2NC(=O)CCSSC[C@@H](C(=O)N3CCC[C@H]3C(=O)N[C@@H](CCCNC(N)=O)C(=O)NCC(N)=O)NC(=O)[C@H](CC(N)=O)NC(=O)[C@H](CCC(N)=O)NC(=O)[C@H]([C@@H](C)CC)NC2=O)cc1 [Example 3, 1-β-mercaptopropionic acid-2-(4-ethoxy)-phenyl alanine-8-citrullin vasotocin] ([Mpa]Y(Et)IQNCP[Cit]G-NH2; disulfide 1-6) | 8.5 | – | – | – | – | –
15 | CCOc1ccc(C[C@H]2NC(=O)CCSSC[C@@H](C(=O)N3CCC[C@H]3C(=O)N[C@@H](CCCN)C(=O)NCC(N)=O)NC(=O)[C@H](CC(N)=O)NC(=O)[C@H]([C@@H](C)O)NC(=O)[C@H]([C@@H](C)CC)NC2=O)cc1 [Antocin, 1-desamino-(2-0-ethyltyrosine)-oxytocin, reference compound] ([Mpa][dY](Et)ITNCP[Orn]G-NH2; disulfide 1-6) | – | < 0.2 | < 0.1 | 1 | 7.2 | competitive inhibition
16 | CCOc1ccc(C[C@H]2NC(=O)CCSSC[C@@H](C(=O)N3CCC[C@H]3C(=O)N[C@@H](CCCNC(=N)N)C(=O)NCC(N)=O)NC(=O)[C@H](CC(N)=O)NC(=O)[C@H](CCC(N)=O)NC(=O)[C@H]([C@@H](C)CC)NC2=O)cc1 [Example 2, 1-β-mercaptopropionic acid-2-(4-ethoxy)-D-phenyl alanine-8-arginine vasotocin] ([Mpa][dY](Et)IQNCPRG-NH2; disulfide 1-6) | – | – | – | – | 8.7 | –
